Where two headings read alike, the source gives them in different places. Values belong to the molecule of their own block, whether it stands above or below them. Where a SMILES comes first, the peptide text is derived from it. [ ]: non-standard residue; d: D form. dPhe(4-I) = N[C@H](Cc1ccc(I)cc1)C(=O)O; 2Nal = N[C@@H](Cc1ccc2ccccc2c1)C(=O)O; d2Nal = N[C@H](Cc1ccc2ccccc2c1)C(=O)O
How the values were obtained:
mMC3R [1] = target: T1, mMC3R (Mus musculus, UniProt P33033); assay: mMC3R | Antagonist Potency Ki (nM); set-up: expressed in transfected cells; host or cells: HEK293
Excerpt: (§1) Table printed on a drawing sheet, FIGURE 18
(§2) Title: Tetrapeptide Antagonist Pharmacology at the Mouse Melanocortin Receptors.^a
Head of the field: mMC3R | Antagonist Potency Ki (nM)
(§3) First copying reader's note: Columns 4 and 7 are empty spacer columns as printed; the table runs off the bottom of the sheet (continued on the next sheet) and footnotes a and b are not printed here.
Target sequence in this assay (P33033 whole entry, looked up): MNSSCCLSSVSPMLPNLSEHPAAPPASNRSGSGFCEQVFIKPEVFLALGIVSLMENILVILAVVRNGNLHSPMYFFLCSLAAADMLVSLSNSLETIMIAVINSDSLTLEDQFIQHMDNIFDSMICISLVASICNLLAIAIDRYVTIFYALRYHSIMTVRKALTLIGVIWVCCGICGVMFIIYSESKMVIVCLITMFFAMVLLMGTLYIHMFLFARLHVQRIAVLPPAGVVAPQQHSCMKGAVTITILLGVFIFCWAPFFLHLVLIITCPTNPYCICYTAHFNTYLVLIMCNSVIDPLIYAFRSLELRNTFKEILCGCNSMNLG

mMC4R [2] = target: T2, mMC4R (Mus musculus, UniProt P56450); assay: mMC4R | Antagonist Potency Ki (nM); set-up: expressed in transfected cells; host or cells: HEK293
Excerpt: as §1, §2
Target sequence in this assay (P56450 whole entry, looked up): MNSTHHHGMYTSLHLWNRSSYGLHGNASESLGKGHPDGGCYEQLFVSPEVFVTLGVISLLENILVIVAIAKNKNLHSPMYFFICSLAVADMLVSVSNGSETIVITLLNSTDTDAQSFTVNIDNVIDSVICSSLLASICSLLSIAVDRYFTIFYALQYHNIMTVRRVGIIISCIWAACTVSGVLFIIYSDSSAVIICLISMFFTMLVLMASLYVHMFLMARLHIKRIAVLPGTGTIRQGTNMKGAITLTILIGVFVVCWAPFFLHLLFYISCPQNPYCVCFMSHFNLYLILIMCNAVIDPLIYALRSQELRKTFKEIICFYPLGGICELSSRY
Head of the field: mMC4R | Antagonist Potency Ki (nM)
as §3

mMC1R [3] = target: T3, mMC1R (Mus musculus, UniProt Q01727); conditions: up to 100 μM
Description: (§4) Following stimulation, streptavidin donor beads (0.5 μg) and biotinylated-cAMP (0.62 μmol) were added to the wells in a green light environment with 10 μL of lysis buffer (5 mM HEPES, 0.3% Tween-20, 0.1% BSA, pH=7.4) and the plates were incubated in the dark at room temperature for an additional 2 h. Plates were read on a Enspire (PerkinElmer) Alpha-plate reader using a pre-normalized assay protocol (set by the manufacturer).

mMC5R = mMC5R (Mus musculus, UniProt P41149); assay: cAMP AlphaScreen agonist assay at mMC5R, HEK293 cells; conditions: for mMC5R partial stimulation, % of the maximal NDP-MSH signal: 100 μM; for mMC5R agonist activity: up to 100 μM
Description: as §4

mMC4R [4] = target: T2, mMC4R; assay: cAMP AlphaScreen antagonist assay at mMC4R, NDP-MSH as agonist, HEK293 cells; conditions: NDP-MSH as agonist; HEK293 cells stably expressing mMC4R
Target sequence in this assay (P56450 whole entry): as the sequence (P56450 whole entry, looked up) above
Description: as §4

mMC3R [5] = target: T1, mMC3R; assay: cAMP AlphaScreen antagonist assay at mMC3R, NDP-MSH as agonist, HEK293 cells; conditions: for mMC3R antagonist pA2: NDP-MSH as agonist, HEK293 cells stably expressing mMC3R; for mMC3R antagonist activity: at the concentrations assayed
Target sequence in this assay (P33033 whole entry): as the sequence (P33033 whole entry, looked up) above

mMC1R [6] = target: T3, mMC1R; assay: cell-based
Description: as §4

T3 sequence (Q01727 whole entry): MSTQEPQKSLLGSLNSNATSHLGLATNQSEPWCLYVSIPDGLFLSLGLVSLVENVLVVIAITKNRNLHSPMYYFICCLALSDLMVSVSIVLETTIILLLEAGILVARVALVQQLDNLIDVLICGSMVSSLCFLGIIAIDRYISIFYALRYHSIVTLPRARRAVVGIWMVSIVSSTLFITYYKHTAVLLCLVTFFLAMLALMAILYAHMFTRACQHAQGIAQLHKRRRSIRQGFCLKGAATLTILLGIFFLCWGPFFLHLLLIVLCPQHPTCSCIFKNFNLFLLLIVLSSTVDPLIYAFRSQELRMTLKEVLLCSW
Sequence of mMC5R (P41149 whole entry): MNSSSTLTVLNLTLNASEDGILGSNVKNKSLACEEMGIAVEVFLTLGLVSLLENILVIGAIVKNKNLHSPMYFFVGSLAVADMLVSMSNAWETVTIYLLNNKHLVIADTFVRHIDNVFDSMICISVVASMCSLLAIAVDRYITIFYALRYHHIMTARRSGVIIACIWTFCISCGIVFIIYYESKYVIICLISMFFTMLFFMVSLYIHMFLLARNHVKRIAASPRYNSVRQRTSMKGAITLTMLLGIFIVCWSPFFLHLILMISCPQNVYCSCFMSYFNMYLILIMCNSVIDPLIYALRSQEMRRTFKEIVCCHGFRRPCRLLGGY

Molecule: CC(=O)N[C@H](Cc1ccc2ccccc2c1)C(=O)N[C@@H](CCCNC(=N)N)C(=O)N[C@@H](Cc1c[nH]c2ccccc12)C(=O)N[C@@H](CCCNC(=N)N)C(N)=O [18 | MDE10-27, Ac-DNal(2’)-Arg-Trp-Arg-NH2] (Ac-[d2Nal]RWR-NH2)
Ki (mMC3R [1]): 160 nM | Ki (mMC4R [2]): 5 nM

Molecule: Ac-DNal(2′)-DNal(2′)-Nal(2′)-Arg-NH2 [compound 12]
mMC5R partial stimulation, % of the maximal NDP-MSH signal (mMC5R): 40%

Molecule: CC(=O)N[C@H](Cc1ccc2ccccc2c1)C(=O)N[C@@H](CCCNC(=N)N)C(=O)N[C@@H](Cc1ccc2ccccc2c1)C(=O)N[C@@H](CCCNC(=N)N)C(N)=O [24 | MDE10-28, Ac-DNal(2’)-Arg-Nal(2’)-Arg-NH2] (Ac-[d2Nal]R[2Nal]R-NH2)
Ki (mMC3R [1]): 100 nM | Ki (mMC4R [2]): 1.6 nM

Molecule: CC(=O)N[C@H](Cc1ccc2ccccc2c1)C(=O)N[C@@H](CCCNC(=N)N)C(=O)N[C@@H](Cc1ccc2ccccc2c1)C(=O)N[C@H](CCCCN)C(N)=O [22 | COR1-29-8, Ac-DNal(2’)-Arg-Nal(2’)-DLys-NH2] (Ac-[d2Nal]R[2Nal][dK]-NH2)
Ki (mMC3R [1]): 630 nM | Ki (mMC4R [2]): 16 nM

Molecule: Ac-DNal(2′)-Arg-DPhe(pI)-Arg-NH2 [compound 21]
mMC1R agonist activity (mMC1R [3]): full agonist activity

Molecule: CC(=O)N[C@H](Cc1ccc2ccccc2c1)C(=O)N[C@@H](CCCNC(=N)N)C(=O)N[C@H](Cc1ccc2ccccc2c1)C(=O)N[C@@H](CCCNC(=N)N)C(N)=O [compound 15, Ac-DNal(2′)-Arg-DNal(2′)-Arg-NH2] (Ac-[d2Nal]R[d2Nal]R-NH2)
EC50 (mMC1R [6]): 400 to 7900 nM

Molecule: CC(=O)N[C@H](Cc1ccc2ccccc2c1)C(=O)N[C@@H](CCCNC(=N)N)C(=O)N[C@H](Cc1ccc2ccccc2c1)C(=O)N[C@H](Cc1ccc2ccccc2c1)C(N)=O [14 | COR2-57, Ac-DNal(2’)-Arg-DNal(2’)-DNal(2’)-NH2] (Ac-[d2Nal]R[d2Nal][d2Nal]-NH2)
Ki (mMC3R [1]): 2000 nM | Ki (mMC4R [2]): 500 nM

Molecule: CC(=O)N[C@H](Cc1ccc2ccccc2c1)C(=O)N[C@H](Cc1ccc2ccccc2c1)C(=O)N[C@H](Cc1ccc2ccccc2c1)C(=O)N[C@@H](CCCNC(=N)N)C(N)=O [compound 3, Ac-DNal(2′)-DNal(2′)-DNal(2′)-Arg-NH2] (Ac-[d2Nal][d2Nal][d2Nal]R-NH2)
EC50 (mMC5R): 30 to 800 nM | EC50 (mMC5R; read-out: mMC5R agonist EC50): 130 nM | mMC5R agonist activity (mMC5R): full mMC5R agonists | mMC3R antagonist activity (mMC3R [5]): did not act as antagonists

Molecule: CC(=O)N[C@H](Cc1ccc2ccccc2c1)C(=O)N[C@@H](CCCNC(=N)N)C(=O)N[C@H](Cc1ccc(I)cc1)C(=O)N[C@H](Cc1ccc2ccccc2c1)C(N)=O [20 | COR2-15, Ac-DNal(2’)-Arg-DPhe(pI)-DNal(2’)-NH2] (Ac-[d2Nal]R[dPhe(4-I)][d2Nal]-NH2)
Ki (mMC3R [1]): 790 nM | Ki (mMC4R [2]): 320 nM

Molecule: CC(=O)N[C@H](Cc1ccc2ccccc2c1)C(=O)N[C@@H](CCCNC(=N)N)C(=O)N[C@@H](Cc1c[nH]c2ccccc12)C(=O)N[C@H](Cc1ccc2ccccc2c1)C(N)=O [17 | COR1-60, Ac-DNal(2’)-Arg-Trp-DNal(2’)-NH2] (Ac-[d2Nal]RW[d2Nal]-NH2)
Ki (mMC3R [1]): 2000 nM | Ki (mMC4R [2]): 100 nM

Molecule: Ac-DNal(2′)-Arg-DPhe(pI)-DLys-NH2 [compound 19]
mMC1R agonist activity (mMC1R [3]): full agonist activity

Molecule: CC(=O)N[C@H](Cc1ccc(I)cc1)C(=O)N[C@H](Cc1ccc2ccccc2c1)C(=O)N[C@@H](Cc1ccc2ccccc2c1)C(=O)N[C@@H](CCCNC(=N)N)C(N)=O [compound 36, Ac-DPhe(pI)-DNal(2′)-Nal(2′)-Arg-NH2] (Ac-[dPhe(4-I)][d2Nal][2Nal]R-NH2)
EC50 (mMC5R): 30 to 800 nM | mMC5R agonist activity (mMC5R): full mMC5R agonists | mMC4R antagonist pA2 (mMC4R [4]): 5.8 | mMC3R antagonist activity (mMC3R [5]): did not act as antagonists

Molecule: CC(=O)N[C@H](Cc1ccc2ccccc2c1)C(=O)N[C@H](Cc1ccc2ccccc2c1)C(=O)N[C@H](Cc1ccc(I)cc1)C(=O)N[C@@H](CCCNC(=N)N)C(N)=O [compound 9, Ac-DNal(2′)-DNal(2′)-DPhe(pI)-Arg-NH2] (Ac-[d2Nal][d2Nal][dPhe(4-I)]R-NH2)
EC50 (mMC5R): 30 to 800 nM | EC50 (mMC5R; read-out: mMC5R agonist EC50): 30 nM | mMC5R agonist activity (mMC5R): full mMC5R agonists | mMC3R antagonist activity (mMC3R [5]): did not act as antagonists

Molecule: CC(=O)N[C@H](Cc1ccc2ccccc2c1)C(=O)N[C@@H](CCCNC(=N)N)C(=O)N[C@H](Cc1ccc(I)cc1)C(=O)N[C@H](CCCCN)C(N)=O [19 | COR1-29-7, Ac-DNal(2’)-Arg-DPhe(pI)-DLys-NH2]
Ki (mMC3R [1]): 130 nM | Ki (mMC4R [2]): 3.2 nM

Molecule: CC(=O)N[C@H](Cc1ccc2ccccc2c1)C(=O)N[C@@H](CCCNC(=N)N)C(=O)N[C@H](Cc1ccc2ccccc2c1)C(=O)N[C@@H](CCCNC(=N)N)C(N)=O [15 | COR2-93, Ac-DNal(2’)-Arg-DNal(2’)-Arg-NH2] (Ac-[d2Nal]R[d2Nal]R-NH2)
Ki (mMC3R [1]): 790 nM | Ki (mMC4R [2]): 5 nM

Molecule: CC(=O)N[C@H](Cc1ccc2ccccc2c1)C(=O)N[C@@H](CCCNC(=N)N)C(=O)N[C@H](Cc1ccc2ccccc2c1)C(=O)N[C@H](CCCCN)C(N)=O [compound 13, Ac-DNal(2′)-Arg-DNal(2′)-DLys-NH2] (Ac-[d2Nal]R[d2Nal][dK]-NH2)
EC50 (mMC1R [6]): 400 to 7900 nM

Molecule: CC(=O)N[C@H](Cc1ccc2ccccc2c1)C(=O)N[C@H](Cc1ccc2ccccc2c1)C(=O)N[C@@H](Cc1c[nH]c2ccccc12)C(=O)N[C@H](CCCCN)C(N)=O [4 | COR1-29-2, Ac-DNal(2’)-DNal(2’)-Trp-DLys-NH2] (Ac-[d2Nal][d2Nal]W[dK]-NH2)
Ki (mMC3R [1]): 1600 nM | Ki (mMC4R [2]): 200 nM

Molecule: CC(=O)N[C@H](Cc1ccc(I)cc1)C(=O)N[C@H](Cc1ccc2ccccc2c1)C(=O)N[C@H](Cc1ccc2ccccc2c1)C(=O)N[C@H](CCCCN)C(N)=O [25 | COR1-80, Ac-DPhe(pI)-DNal(2’)-DNal(2’)-DLys-NH2] (Ac-[dPhe(4-I)][d2Nal][d2Nal][dK]-NH2)
Ki (mMC4R [2]): 500 nM

Molecule: CC(=O)N[C@H](Cc1ccc2ccccc2c1)C(=O)N[C@@H](CCCNC(=N)N)C(=O)N[C@H](Cc1ccc2ccccc2c1)C(=O)N[C@H](CCCCN)C(N)=O [13 | COR1-29-5, Ac-DNal(2’)-Arg-DNal(2’)-DLys-NH2] (Ac-[d2Nal]R[d2Nal][dK]-NH2)
Ki (mMC3R [1]): 1000 nM | Ki (mMC4R [2]): 6.3 nM

Molecule: CC(=O)N[C@H](Cc1ccc2ccccc2c1)C(=O)N[C@@H](CCCNC(=N)N)C(=O)N[C@@H](Cc1ccc2ccccc2c1)C(=O)N[C@H](Cc1ccc2ccccc2c1)C(N)=O [23 | COR2-33, Ac-DNal(2’)-Arg-Nal(2’)-DNal(2’)-NH2] (Ac-[d2Nal]R[2Nal][d2Nal]-NH2)
Ki (mMC4R [2]): 200 nM

Molecule: Ac-DNal(2′)-DNal(2′)-Trp-DLys-NH2 [compound 4]
mMC3R antagonist pA2 (mMC3R [5]): 5.8

Molecule: CC(=O)N[C@H](Cc1ccc2ccccc2c1)C(=O)N[C@@H](CCCNC(=N)N)C(=O)N[C@@H](Cc1c[nH]c2ccccc12)C(=O)N[C@H](CCCCN)C(N)=O [16 | COR1-29-6, Ac-DNal(2’)-Arg-Trp-DLys-NH2] (Ac-[d2Nal]RW[dK]-NH2)
Ki (mMC3R [1]): 3200 nM | Ki (mMC4R [2]): 20 nM

Molecule: CC(=O)N[C@H](Cc1ccc2ccccc2c1)C(=O)N[C@@H](CCCNC(=N)N)C(=O)N[C@H](Cc1ccc2ccccc2c1)C(=O)N[C@H](Cc1ccc2ccccc2c1)C(N)=O [compound 14] (Ac-[d2Nal]R[d2Nal][d2Nal]-NH2)
EC50 (mMC1R [6]): 400 to 7900 nM

Molecule: CC(=O)N[C@H](Cc1ccc2ccccc2c1)C(=O)N[C@@H](CCCNC(=N)N)C(=O)N[C@H](Cc1ccc(I)cc1)C(=O)N[C@@H](CCCNC(=N)N)C(N)=O [21 | COR2-105, Ac-DNal(2’)-Arg-DPhe(pI)-Arg-NH2] (Ac-[d2Nal]R[dPhe(4-I)]R-NH2)
Ki (mMC3R [1]): 79 nM | Ki (mMC4R [2]): 2.5 nM

The next lines start with the values.

mMC1R agonist activity (mMC1R [3]): full agonist activity
Molecule: Ac-DPhe(pI)-Arg-DPhe(pI)-Arg-NH2 [compound 45]

mMC5R partial stimulation, % of the maximal NDP-MSH signal (mMC5R): 45%
Molecule: Ac-[d2Nal][d2Nal]WR-NH2 [compound 6]

mMC4R antagonist pA2 (mMC4R [4]): 7.7
Molecule: Ac-[d2Nal]RW[dK]-NH2 [compound 16]

mMC4R antagonist pA2 (mMC4R [4]): 6.6 | mMC3R antagonist pA2 (mMC3R [5]): 5.7
Molecule: Ac-DPhe(pI)-DNal(2′)-Trp-DLys-NH2 [compound 28]

mMC5R agonist activity (mMC5R): inactive | mMC4R antagonist pA2 (mMC4R [4]): 5.6
Molecule: Ac-DPhe(pI)-DNal(2′)-Trp-Arg-NH2 [compound 30]

mMC4R antagonist pA2 (mMC4R [4]): 6.3
Molecule: Ac-DPhe(pI)-DNal(2′)-DNal(2′)-DLys-NH2 [compound 25]

mMC5R agonist activity (mMC5R): full mMC5R agonists | mMC3R antagonist activity (mMC3R [5]): did not act as antagonists
Molecule: CC(=O)N[C@H](Cc1ccc(I)cc1)C(=O)N[C@H](Cc1ccc2ccccc2c1)C(=O)N[C@H](Cc1ccc2ccccc2c1)C(=O)N[C@@H](CCCNC(=N)N)C(N)=O [compound 27, Ac-DPhe(pI)-DNal(2′)-DNal(2′)-Arg-NH2] (Ac-[dPhe(4-I)][d2Nal][d2Nal]R-NH2)

mMC4R antagonist pA2 (mMC4R [4]): 8.8
Molecule: Ac-[d2Nal]R[2Nal]R-NH2 [compound 24]

mMC5R partial stimulation, % of the maximal NDP-MSH signal (mMC5R): 50%
Molecule: Ac-DPhe(pI)-DNal(2′)-Nal(2′)-DLys-NH2 [compound 34]

mMC4R antagonist pA2 (mMC4R [4]): 7.6
Molecule: Ac-[dPhe(4-I)]RW[dK]-NH2 [compound 40]

mMC1R agonist activity (mMC1R [3]): full agonist activity
Molecule: Ac-DPhe(pI)-Arg-DPhe(pI)-DLys-NH2 [compound 43]
